Assay results taken from article PMC3909264, “A Novel Acylaminoimidazole Derivative, WN1316, Alleviates Disease Progression via Suppression of Glial Inflammation in ALS Mouse Model” (PLoS ONE, 2014).
Structures can show the parent of a compound that is named as a salt.

System: ALS(SOD1^H46R) mice
Test: Histopathology, immunohistochemistry and Western blot of spinal cord, ventral root and muscle of treated ALS(SOD1^H46R) mice
Format: in vivo, mouse
Description: At 21–22 weeks of age (late-symptomatic stage), mice were anesthetized with 2% isoflurane by inhalation. Anesthetized mice were transcardially perfused with physiological saline containing 10% heparin, followed by 4% paraformaldehyde (PFA) in 0.1 M phosphate buffer (PB) (pH 7.2). Spinal cord was removed, and lumbar segment was dissected.
For the preparation of paraffin-embedding tissue, lumbar segment was post-fixed with the same fixative for 48 h at 4°C and embedded in paraffin. Serial transverse sections (6 µm thickness) of lumbar segment (L4–L5) were sliced and stained with hematoxylin and eosin (H&E) for histopathological evaluation.
For the preparation of frozen-embedding tissue, lumbar segment was post-fixed with 4% PFA in 0.1 M PB (pH 7.2) for 24 h at 4°C, and then processed in 30% sucrose in 0.1 M PB (pH 7.2) containing 0.1% NaN3 for 96 h at 4°C (for cryoprotection) followed by frozen-embedding. Ten µm frozen sections were cut on a cryostat and used for fluorescent immunohistochemistry.
Immunohistochemical analyses with anti-ChAT, anti-Iba-1, anti-GFAP, anti-MAP2, anti-IL-1β and anti-8-OHdG antibodies were performed. For immunostaining with anti-ChAT antibody, the deparaffinized sections from late-symptomatic mice were pre-treated by autoclaving at 121°C for 5 min in HISTOFINE antigen retrieval solution (pH 9.0) (Nichirei). For immunostaining with anti-Iba-1 antibody, the deparaffinized sections from late-symptomatic mice were pre-treated by autoclaving at 121°C for 10 min in 10 mM citrate buffer (pH 6.0). For immunostaining with anti-GFAP antibody, the deparaffinized sections were used without any pretreatment. The sections were incubated with 0.3% H2O2 in methanol for 30 min and then with phosphate-buffered saline (PBS) (pH 7.2) containing 0.3% Triton X-100 for 30 min. After the treatment with PBS containing 5% normal goat serum (NGS) (Vector Laboratories)/0.05% Triton X-100 or 5% normal rabbit serum (NRS) (Vector Laboratories)/0.05% Triton X-100 for 1 h at room temperature, the sections were incubated with either anti-GFAP or anti-Iba-1 antibody in PBS containing 1.5% NGS/0.05% Triton X-100 or with anti-ChAT antibody in PBS containing 1.5% NRS/0.05% Triton X-100 overnight at 4°C. The sections were then incubated with HISTOFINE simple stain mouse MAX-PO (R) (Nichirei) or with HISTOFINE simple stain mouse MAX-PO (G) (Nichirei) for 1 hr at room temperature. The sections were visualized using 0.05% 3,3-diaminobenzidine tetrahydrochloride (DAB) (Wako) and 0.015% H2O2 in 50 mM Tris-HCl (pH 7.5) buffer, and the DAB reaction products were observed under a light microscope (BIOREVO BZ-9000, KEYENCE).
For double-immunostaining using frozen section, sections from late-symptomatic mice were washed with PBS, and treated with PBS containing 3% normal horse serum (NHS) (Vector Laboratories)/0.3% Triton X-100 for 1 h at room temperature. The sections were incubated with anti-IL-1β antibody in PBS containing 0.01% Triton X-100 for 48 h at 4°C, and then were incubated with CF^TM488A donkey anti-goat IgG (H+L) (1∶400, Biotium) in PBS containing 0.01% Triton X-100 for 1 h at room temperature. Next, the sections were incubated with anti-GFAP, anti-Iba-1 or anti-MAP2 antibody in PBS containing 0.01% Triton X-100 overnight at 4°C, and then were incubated with CF^TM555 goat anti-rabbit IgG (H+L) (1∶400, Biotium) in PBS containing 0.01% Triton X-100 for 1 h at room temperature. Fluorescent signals were observed under a light microscope (BIOREVO BZ-9000, KEYENCE).
For double-immunostaining of deparaffinized tissue, sections from late-symptomatic mice were pre-treated by autoclaving at 121°C for 10 min in 10 mM citrate buffer (pH 6.0). After the treatment with PBS containing 5%NGS/0.05% Triton X-100, the sections were incubated with anti-8-OHdG and anti-GFAP, anti-Iba-1 or anti-MAP2 antibodies in PBS containing 1.5% NGS/0.05% Triton X-100 overnight at 4°C. […]

Structure (SMILES): Cc1cc(C)c(N(C)CC(=O)Nc2nc(-c3ccccn3)c[nH]2)c(C)c1 [WN1316, 2-[mesityl(methyl)amino]-N-[4-(pyridin-2-yl)-1H-imidazol-2-yl] acetamide trihydrochloride]
- DNA oxidation (8-OHdG) in lumbar spinal cord (10 µg/kg, 21–22 weeks of age): remarkable reduction
- IL-1β immunoreactivity in astrocytes (10 µg/kg, 21–22 weeks of age): diminished dramatically
- iNOS generation in lumbar spinal cord (Western blot) (10 µg/kg, 21–22 weeks of age): decreased
- large myelinated axons in the L5 ventral root (10 µg/kg, 21–22 weeks of age): preservation of large myelinated axons
- GFAP and Iba-1 immunoreactivity in lumbar spinal cord anterior horn (10 µg/kg, 21–22 weeks of age, vs vehicle): significant reduction
- protein levels of mutant SOD1 in NP-40-soluble and NP-40-insoluble/SDS-soluble fractions (10 µg/kg, vs vehicle, 21–22 weeks of age): no significant differences
- loss of ChAT-positive motor neurons compared with non-Tg littermates (10 µg/kg/day, lumbar L4–L5, 21–22 weeks of age (vehicle 35.5%)): 15.2%
- skeletal muscle integrity (quadriceps femoris) (21–22 weeks of age): preserved the skeletal muscle integrity
